Measured values reported in patent publication US20240315990A1, “Adelmidrol For Use In Diseases Characterized By Insufficient Agonism Of PPAR-GAMMA Receptor” (Epitech Group S.P.A., priority 2016, published 2024).

Target: T1, PPAR-gamma receptor (Rattus norvegicus, UniProt O88275)
T1 construct: from tissue; host or cells: live rat (in vivo, paw edema model)
T1 sequence (O88275 1-505): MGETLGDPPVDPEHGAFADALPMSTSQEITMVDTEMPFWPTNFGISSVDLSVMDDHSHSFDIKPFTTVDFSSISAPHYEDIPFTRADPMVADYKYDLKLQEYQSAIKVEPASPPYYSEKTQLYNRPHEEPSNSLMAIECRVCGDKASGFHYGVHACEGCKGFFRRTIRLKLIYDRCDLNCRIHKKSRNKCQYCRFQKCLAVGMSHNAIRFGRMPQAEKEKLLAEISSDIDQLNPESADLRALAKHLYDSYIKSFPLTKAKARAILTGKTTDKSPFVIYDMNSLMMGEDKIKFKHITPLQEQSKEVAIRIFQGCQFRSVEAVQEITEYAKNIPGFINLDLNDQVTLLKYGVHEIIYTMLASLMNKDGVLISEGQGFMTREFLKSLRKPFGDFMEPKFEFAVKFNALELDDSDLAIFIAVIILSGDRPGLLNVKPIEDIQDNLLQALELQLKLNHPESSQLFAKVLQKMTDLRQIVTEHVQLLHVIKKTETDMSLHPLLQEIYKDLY
Test: carrageenan-induced rat paw edema with PPAR-gamma antagonist GW9662, residence time of the paw on the hot plate
Type: in vivo
Conditions: GW9662 1 mg/kg i.p. 30 min before CAR, Adelmidrol 10 mg/kg i.p.
Procedure: The experimental model of carrageenan-induced rat paw edema is as shown above. In this experiment, the effect was assessed by measuring the residence time of the animal's paw on the hot plate, thus obtaining percentage data with respect to the control treated with carrageenan alone.
The rats (10 animals per group) were divided into the following experimental groups: • CAR+physiological solution; • CAR+GW9662 (1 mg/kg)+Adelmidrol (10 mg/kg); GW9662 was administered i.p. 30 min before injecting CAR and Adelmidrol (i.p.) when injecting CAR; • CAR+Adelmidrol (10 mg/kg); Adelmidrol was administered i.p. when injecting CAR.

O=C(Nc1ccccc1)c1cc([N+](=O)[O-])ccc1Cl [GW9662, reference compound]
effect of pretreatment with PPAR-gamma antagonist on the protective action of Adelmidrol: antagonized the effect of Adelmidrol thus substantially abolishing the protective action thereof
